This passage reports EC50 results from patent US10889565B2, “4-hydroxy-3-sulfonylpyridin-2(1H)-ones as APJ receptor agonists” (BRISTOL-MYERS SQUIBB COMPANY, priority 2016, dated 2021).

The test addresses T1, human APJ receptor (Homo sapiens, UniProt P35414).
T1 construct: expressed in transfected cells
T1 sequence (P35414 1-380): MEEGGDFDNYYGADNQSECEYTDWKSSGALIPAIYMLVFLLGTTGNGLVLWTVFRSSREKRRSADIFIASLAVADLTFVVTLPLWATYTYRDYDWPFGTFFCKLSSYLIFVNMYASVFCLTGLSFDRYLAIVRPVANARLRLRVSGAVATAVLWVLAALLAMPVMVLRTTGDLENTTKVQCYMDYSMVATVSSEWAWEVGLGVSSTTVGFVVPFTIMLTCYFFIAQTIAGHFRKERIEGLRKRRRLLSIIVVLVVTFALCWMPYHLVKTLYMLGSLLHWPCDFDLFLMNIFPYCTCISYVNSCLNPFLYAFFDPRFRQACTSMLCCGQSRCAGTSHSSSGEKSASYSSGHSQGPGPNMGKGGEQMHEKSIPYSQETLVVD
Put plainly: Intracellular cAMP accumulation assay (APJ hcAMP, HTRF). It is filed as cell-based. The note with it: HEK293 cells stably expressing human APJ receptor; inhibition of forskolin-mediated cAMP production; read-out: Human APJ cAMP EC50 Potency range. As to the method:
Intracellular cAMP Accumulation Assay
HEK293 cells stably expressing human APJ receptor were used to assess the activity of compounds. Cultured cells were detached and resuspended in the cAMP Homogeneous Time-Resolved Fluorescence (HTRF) assay buffer (Cisbio cat; #62AM4PEJ). The assay was performed in 384-well assay plates (Perkin-Elmer; cat #6008289) according to assay protocol provided by the manufacturer. Serial dilutions of a compound together with assay buffer containing […] IBMX and 2 μM forskolin were added to each well containing 5,000 cells and incubated for 30 minutes at room temperature. Subsequently, cAMP D2 reagent was added in the lysis buffer followed by the EuK antibody (Cisbio; cat #62AM4PEJ) and incubated for 60 min. The fluorescence emission ratio was measured using fluorometer. The intracellular cAMP concentrations (compound-stimulated inhibition of forskolin-mediated cAMP production) were calculated by extrapolation from a standard curve using known cAMP concentrations. The EC50 values were obtained by fitting the data to a sigmoidal concentration-response curve with variable slope. The maximal achievable inhibition of forskolin-induced cAMP levels (Ymax) for each compound was expressed as relative percentage of inhibition attained using pyroglutamated apelin-13 ((Pyr1)apelin-13) peptide, which was set to 100%.
The examples disclosed below were tested in the APJ in vitro assays described above and were found having human APJ cyclic AMP (hcAMP) activity. The EC50 value of each compound is presented at the end of the example description.
The biological activity of the exemplified compounds of this invention determined by the assay described above is shown at the end of each example.
Broadly, the EC50 is the concentration giving half of the maximal effect. Regarding `CCCCc1[nH]c(=O)c(S(=O)(=O)c2ccc(-c3ccc(C(=O)NC4CC4)cc3)cn2)c(O)c1-c1c(OC)cccc1OC` [Example 45, 4-(6-((6-butyl-5-(2,6-dimethoxy-phenyl)-4-hydroxy-2-oxo-1,2-dihydro-pyridin-3-yl)sulfonyl)pyridin-3-yl)-N-cyclopropyl-benzamide], the half-maximal effective concentration (EC50) lay in the range of 0.01 to 10 nM.

As to `CCCCc1[nH]c(=O)c(S(=O)(=O)c2ccc(Nc3ccc(F)cc3)cc2)c(O)c1-c1c(OC)cccc1OC` [Example 29, 6-butyl-5-(2,6-dimethoxyphenyl)-3-((4-((4-fluorophenyl)amino)phenyl)sulfonyl)-4-hydroxypyridin-2(1H)-one], the half-maximal effective concentration (EC50) was in the range of 0.01 to 10 nM. For `CCCCc1[nH]c(=O)c(S(=O)(=O)c2ccc(-c3cccnc3OC)cc2)c(O)c1-c1c(OC)cccc1OC` [Example 2, 6-butyl-5-(2,6-dimethoxy-phenyl)-4-hydroxy-3-((4-(2-methoxy-pyridin-3-yl)phenyl)sulfonyl) pyridin-2(1H)-one] the value was 0.01 to 10 nM. With `CCCCc1[nH]c(=O)c(S(=O)(=O)c2ccc(-c3ccc(F)cc3C)cn2)c(O)c1-c1c(OC)cccc1OC` [Example 36, 6-butyl-5-(2,6-dimethoxy-phenyl)-3-((5-(4-fluoro-2-methylphenyl)pyridin-2-yl)sulfonyl)-4-hydroxy-pyridin-2(1H)-one] the figure was 0.01 to 10 nM; with `CCCCc1[nH]c(=O)c(S(=O)(=O)c2ccc(NC(=O)Nc3ccc(F)cc3)cc2)c(O)c1-c1c(OC)cccc1OC` [Example 31, 1-(4-((6-butyl-5-(2,6-dimethoxyphenyl)-4-hydroxy-2-oxo-1,2-dihydropyridin-3-yl)sulfonyl)phenyl)-3-(4-fluorophenyl)urea], 0.01 to 10 nM.

Take `CCCCc1[nH]c(=O)c(S(=O)(=O)c2ccc(-n3cc(C)ccc3=O)cc2)c(O)c1-c1c(OC)cccc1OC` [Example 20, 6-butyl-5-(2,6-dimethoxy-phenyl)-4-hydroxy-3-((4-(5-methyl-2-oxopyridin-1(2H)-yl)phenyl)sulfonyl) pyridin-2(1H)-one]: the EC50 is 0.01 to 10 nM. With `CCOCc1[nH]c(=O)c(S(=O)(=O)c2ccc(C3CC3)cc2)c(O)c1-c1c(OC)cccc1OC` [Example 11, 3-((4-cyclo-propylphenyl)sulfonyl)-5-(2,6-dimethoxy-phenyl)-6-(ethoxymethyl)-4-hydroxy-pyridin-2(1H)-one] the figure was 0.01 to 10 nM; with `CCCCc1[nH]c(=O)c(S(=O)(=O)c2ccc(-c3cccc(F)c3C)cn2)c(O)c1-c1c(OC)cccc1OC` [Example 38, 6-butyl-5-(2,6-dimethoxy-phenyl)-3-((5-(3-fluoro-2-methylphenyl)pyridin-2-yl)sulfonyl)-4-hydroxy-pyridin-2(1H)-one], 0.01 to 10 nM. With `CCOCc1[nH]c(=O)c(S(=O)(=O)c2ccc(-n3cc(Cl)ccc3=O)cc2)c(O)c1-c1c(OC)cccc1OC` [Example 21, 3-((4-(5-chloro-2-oxopyridin-1(2H)-yl)phenyl)sulfonyl)-5-(2,6-dimethoxy-phenyl)-6-(ethoxymethyl)-4-hydroxy-pyridin-2(1H)-one] the figure was 0.01 to 10 nM.

In the case of `CCCCc1[nH]c(=O)c(S(=O)(=O)c2ccc(-c3ccncc3C)cc2)c(O)c1-c1c(OC)cccc1OC` [Example 3, 6-butyl-5-(2,6-dimethoxy-phenyl)-4-hydroxy-3-((4-(3-methyl-pyridin-4-yl)phenyl)sulfonyl) pyridin-2(1H)-one], the EC50 was 0.01 to 10 nM. Regarding `CCCCc1[nH]c(=O)c(S(=O)(=O)c2ccc(-n3cc(Cl)ccc3=O)cc2)c(O)c1-c1c(OC)cccc1OC` [Example 19, 6-Butyl-3-((4-(5-chloro-2-oxopyridin-1 (2H)-yl)phenyl)sulfonyl)-5-(2,6-dimethoxyphenyl)-4-hydroxypyridin-2(1H)-one], the half-maximal effective concentration (EC50) was 0.01 to 10 nM. With `COc1cccc(OC)c1-c1c(-c2ccc(F)cc2)[nH]c(=O)c(S(=O)(=O)c2ccc(-c3ccnc(F)c3C)cc2)c1O` [Example 16, 5-(2,6-dimethoxy-phenyl)-3-((4-(2-fluoro-3-methyl-pyridin-4-yl)phenyl)sulfonyl)-6-(4-fluoro-phenyl)-4-hydroxy-pyridin-2(1H)-one] the figure was 0.01 to 10 nM; with `CCCCc1[nH]c(=O)c(S(=O)(=O)c2ccc(-c3ccc(F)nc3C)cc2)c(O)c1-c1c(OC)cccc1OC` [Example 5, 6-butyl-5-(2,6-dimethoxy-phenyl)-3-((4-(6-fluoro-2-methyl-pyridin-3-yl)phenyl)sulfonyl)-4-hydroxy-pyridin-2(1H)-one], 0.01 to 10 nM. With `CCCCc1[nH]c(=O)c(S(=O)(=O)c2ccc(-c3ccnc(OC)c3)cn2)c(O)c1-c1c(OC)cccc1OC` [Example 44, 6-butyl-5-(2,6-dimethoxy-phenyl)-4-hydroxy-3-((2′-methoxy-[3,4′-bipyridin]-6-yl)sulfonyl) pyridin-2(1H)-one] the figure was 0.01 to 10 nM; with `CCOCc1[nH]c(=O)c(S(=O)(=O)c2ccc(-n3ccccc3=O)cc2)c(O)c1-c1c(OC)cccc1OC` [Example 26, 5-(2,6-dimethoxy-phenyl)-6-(ethoxymethyl)-4-hydroxy-3-((4-(2-oxopyridin-1(2H)-yl)phenyl)sulfonyl) pyridin-2(1H)-one], 0.01 to 10 nM.

For the compound `CCCCc1[nH]c(=O)c(S(=O)(=O)c2ccc(-c3ccncc3C)cn2)c(O)c1-c1c(OC)cccc1OC` [Example 34, 6-butyl-5-(2,6-dimethoxy-phenyl)-4-hydroxy-3-((3′-methyl-[3,4′-bipyridin]-6-yl)sulfonyl) pyridin-2(1H)-one], the concentration for a half-maximal effect (EC50) was 0.01 to 10 nM.

As for `COc1cccc(OC)c1-c1c(-c2ccc(F)cc2)[nH]c(=O)c(S(=O)(=O)c2ccc(-n3cc(Cl)ccc3=O)cc2)c1O` [Example 23, 3-((4-(5-chloro-2-oxopyridin-1(2H)-yl)phenyl)sulfonyl)-5-(2,6-dimethoxy-phenyl)-6-(4-fluorophenyl)-4-hydroxy-pyridin-2(1H)-one], the 50% effective concentration (EC50) lay in the range of 0.01 to 10 nM. For `C=C(C)c1ccc(S(=O)(=O)c2c(O)c(-c3c(OC)cccc3OC)c(CCCC)[nH]c2=O)nc1` [Example 49, 6-Butyl-5-(2,6-dimethoxyphenyl)-4-hydroxy-3-((5-(prop-1-en-2-yl)pyridin-2-yl)sulfonyl)pyridin-2(1H)-one] the value was 0.01 to 10 nM. For `CCCCc1[nH]c(=O)c(S(=O)(=O)c2ccc(NC(=O)OC(C)(C)C)cc2)c(O)c1-c1c(OC)cccc1OC` [Example 8, tert-butyl (4-((6-butyl-5-(2,6-dimethoxy-phenyl)-4-hydroxy-2-oxo-1,2-dihydro-pyridin-3-yl)sulfonyl)phenyl) carbamate] the value was 0.01 to 10 nM; for `CCCCc1[nH]c(=O)c(S(=O)(=O)c2ccc(Br)cn2)c(O)c1-c1c(OC)cccc1OC` [Example 32, 3-((5-bromopyridin-2-yl)sulfonyl)-6-butyl-5-(2,6-dimethoxyphenyl)-4-hydroxypyridin-2(1H)-one], 0.01 to 10 nM; for `CCOCc1[nH]c(=O)c(S(=O)(=O)c2ccc(-n3cc(Cl)cc(Cl)c3=O)cc2)c(O)c1-c1c(OC)cccc1OC` [Example 25, 3-((4-(3,5-dichloro-2-oxopyridin-1(2H)-yl)phenyl)sulfonyl)-5-(2,6-dimethoxy-phenyl)-6-(ethoxymethyl)-4-hydroxy-pyridin-2(1H)-one], 10 to 100 nM. With `CCCCc1[nH]c(=O)c(S(=O)(=O)c2ccc(-c3ccc(F)cc3)cc2)c(O)c1-c1c(OC)cccc1OC` [Example 13, 6-butyl-5-(2,6-dimethoxy-phenyl)-3-((4′-fluoro-[1,1′-biphenyl]-4-yl)sulfonyl)-4-hydroxy-pyridin-2(1H)-one] the figure was 10 to 100 nM; with `CCCCc1[nH]c(=O)c(S(=O)(=O)c2ccc(-c3ccnc(F)c3C)cn2)c(O)c1-c1c(OC)cccc1OC` [Example 33, 6-butyl-5-(2,6-dimethoxy-phenyl)-3-((2′-fluoro-3′-methyl-[3,4′-bipyridin]-6-yl)sulfonyl)-4-hydroxy-pyridin-2(1H)-one], 0.01 to 10 nM. For the compound `CCCCc1[nH]c(=O)c(S(=O)(=O)c2ccc(-c3cncc(F)c3)cc2)c(O)c1-c1c(OC)cccc1OC` [Example 4, 6-butyl-5-(2,6-dimethoxy-phenyl)-3-((4-(5-fluoro-pyridin-3-yl)phenyl)sulfonyl)-4-hydroxy-pyridin-2(1H)-one], the concentration giving a half-maximal response (EC50) was in the range of 0.01 to 10 nM. For the compound `CCCCc1[nH]c(=O)c(S(=O)(=O)c2ccccc2Br)c(O)c1-c1c(OC)cccc1OC` [Example 15, 3-((2-bromophenyl)sulfonyl)-6-butyl-5-(2,6-dimethoxy-phenyl)-4-hydroxy-pyridin-2(1H)-one], the EC50 fell in the range of 10 to 100 nM.
